Source: patent publication US20220364989A1, “METHOD FOR MEASURING PHOTOTOXICITY OR PHOTOALLERGY AND REAGENT FOR USE THEREIN” (FUJIFILM Corporation, priority 2018, published 2022)

What was measured:
[1] = NAC depletion under and without ultraviolet irradiation, HPLC with fluorescence detection (284 nm excitation, 333 nm fluorescence); settings: for NAC Depletion (%): without light irradiation
[2] = reported in References 1 to 3; cited from earlier work
[3] = NAC depletion under and without ultraviolet irradiation, HPLC with UV detection (281 nm); settings: for NAC Depletion (%) without light irradiation: 25° C. 24 hours light-shielded; for NAC Depletion (%) without light irradiation / NAC Depletion (%) under light irradiation: test substance solution 1 mmol/L; for NAC Depletion (%) under light irradiation: 2,000 μW/cm^2 for 1 hour then 25° C. 23 hours
[4] = NAL depletion under and without ultraviolet irradiation, HPLC with fluorescence detection (284 nm excitation, 333 nm fluorescence); settings: for NAL Depletion (%): without light irradiation
[5] = NAL depletion under and without ultraviolet irradiation, HPLC with UV detection (281 nm); settings: for NAL Depletion (%) without light irradiation: 25° C. 24 hours light-shielded; for NAL Depletion (%) without light irradiation / NAL Depletion (%) under light irradiation: test substance solution 1 mmol/L; for NAL Depletion (%) under light irradiation: 2,000 μW/cm^2 for 1 hour then 25° C. 23 hours
[6] = reported in References 1 and 2; cited from earlier work
[7] = Average score of NAC and NAL depletion and phototoxicity or photoallergy determination, fluorescence detection; settings: for Average score (%): without light irradiation
[8] = Average score of NAC and NAL depletion and phototoxicity or photoallergy determination, UV detection; settings: for Average score (%) under light irradiation / Average score (%) without light irradiation: average of NAC and NAL depletion
[9] = 25° C. 24 hours light-shielded, test substance solution 1 mmol/L
[10] = 2,000 μW/cm^2 for 1 hour then 25° C. 23 hours, test substance solution 1 mmol/L
[11] = without light irradiation, single compound
[12] = average of NAC and NAL depletion

Compound	Difference in depletion (under light irradiation - without light irradiation) NAC (%) ([1]; single compound)	NAC Depletion (%) ([1]; single compound)	In vivo phototoxicity [2]	Difference in depletion (under light irradiation - without light irradiation) NAC (%) [3] [%]	NAC Depletion (%) without light irradiation [3] [%]	NAC Depletion (%) under light irradiation [3] [%]	Difference in depletion (under light irradiation - without light irradiation) NAL (%) ([4]; single compound)	NAL Depletion (%) ([4]; single compound)	Difference in depletion (under light irradiation - without light irradiation) NAL (%) [5] [%]	NAL Depletion (%) without light irradiation [5] [%]	NAL Depletion (%) under light irradiation [5] [%]	In vivo photoallergy [6]	Difference in depletion (under light irradiation - without light irradiation) Average score (%) ([7]; single compound)	Average score (%) ([7]; single compound)	Difference in depletion (under light irradiation - without light irradiation) Average score (%) [8] [%]	Average score (%) under light irradiation [8] [%]	Average score (%) without light irradiation [8] [%]	also measured
Cc1ccc(C=C2C(=O)C3(C)CCC2C3(C)C)cc1 (racemic) [compound 39]	3.9	0.2	Negative	3.6	0.7	4.3	0.0	0.0	0.0	0.0	0.0	Negative	2.0	0.1	1.8	2.1	0.3	–
COc1c2ccoc2cc2oc(=O)ccc12 [compound 31]	91.9	0.0	Positive	89.6	1.1	90.6	6.0	0.2	8.2	0.2	8.4	Negative	48.9	0.1	48.9	49.5	0.6	–
CCO [compound 50]	−0.3	0.3	Negative	0.4	0.0	0.4	0.0	0.0	−1.3	1.3	0.0	Negative	−0.1	0.1	−0.5	0.2	0.6	–
CC(CN1c2ccccc2Sc2ccccc21)N(C)C.Cl (racemic) [compound 14]	76.4	23.6	Positive	61.9	27.6	89.5	6.6	0.8	–	3.5	−438.6	Positive	41.5	12.2	–	–	15.6	–
CC1(C)SC2C(NC(=O)Cc3ccccc3)C(=O)N2C1C(=O)O (centres unmarked) [compound 44]	1.3	1.1	Negative	1.5	1.4	2.8	0.4	0.8	−0.2	1.9	1.6	Negative	0.9	1.0	0.6	2.2	1.6	–
C[S+](C)[O-] [compound 58]	–	–	Negative	–	–	–	–	–	–	–	–	Negative	–	–	–	–	–	Difference in depletion (under light irradiation - without light irradiation) NAC (%) [1]: 0.1%; NAC Depletion (%) without light irradiation [1, 9]: 0.0%; NAC Depletion (%) under light irradiation [1, 10]: 0.2%; Difference in depletion (under light irradiation - without light irradiation) NAC (%) ([3]; single compound): 0.7%; NAC Depletion (%) [3, 11]: 0.0%; Difference in depletion (under light irradiation - without light irradiation) NAL (%) [4]: 0.0%; NAL Depletion (%) without light irradiation [4, 9]: 0.0%; NAL Depletion (%) under light irradiation [4, 10]: 0.0%; Difference in depletion (under light irradiation - without light irradiation) NAL (%) ([5]; single compound): −0.2%; NAL Depletion (%) [5, 11]: 0.2%; Difference in depletion (under light irradiation - without light irradiation) Average score (%) [7]: 0.1%; Average score (%) under light irradiation [7, 12]: 0.1%; Average score (%) without light irradiation [7, 12]: 0.0%; Difference in depletion (under light irradiation - without light irradiation) Average score (%) ([8]; single compound): 0.3%; Average score (%) [8, 11]: 0.1%
CC(C)OC(=O)C(C)(C)Oc1ccc(C(=O)c2ccc(Cl)cc2)cc1 [compound 38]	98.7	0.0	Positive	–	0.0	−1178.7	37.0	0.0	40.7	0.0	40.7	–	67.8	0.0	–	–	0.0	–
CC(C)O [compound 47]	−0.5	0.5	Negative	1.7	0.0	1.7	0.3	0.0	−1.2	1.5	0.3	Negative	−0.1	0.3	0.2	1.0	0.8	–
Tetrachlorosalicylanilide [compound 12]	39.4	58.0	Positive	–	66.8	−200.9	81.5	5.0	77.9	4.2	82.1	Positive	60.4	31.5	–	–	35.5	–
